Read-outs that look alike come from different tables or passages of the source.
Columns and labels:
P-gp (MDR1) = P-gp (MDR1) (Homo sapiens, UniProt P08183); test: Transport of digoxin and ginsenosides across L-MDR1 cell monolayers (efflux ratio); format: in vitro ADME; details: human, read-out: Efflux ratio (Papp BL-AP / Papp AP-BL)
Procedure: (§1) LLC-PK1 cells, a cell line lacking P-gp, and the derived cell line L-MDR1, which over-express human MDR1-encoded P-gp, were grown in minimum essential medium with supplements at 37°C, 5% CO2, and 95% humidity. LLC-PK1 and L-MDR1 cells were seeded at a density of 12×10^6 cells per 150-cm^2 flask and grown for 7 days in medium 199 supplemented with 2 mM glutamine, 10% fetal bovine serum, 10 mg/500 mL of streptomycin, and 10,000 IU/500 mL of penicillin. To ensure a constant expression level of transport protein, L-MDR1 cells were grown in the presence of 640 nM vincristine. Cells were grown as monolayer on polycarbonate membrane filters (Transwell; Costar Corporation, Cambridge, MA) as outlined previously. Transepithelial resistance was measured in each well using a Millicell ERS ohmmeter (Millipore, Bedford, MA); wells registering a resistance of 200 ohms or greater, after correcting for the resistance obtained in control blank wells, were used in the transport experiments.
(§2) The LLC-PK1 and L-MDR1 cells were washed with warm Hank's balanced salt solution HBSS (pH 7.4) twice before transport experiment. HBSS containing verapamil (10 µM), SLE (2.0 and 10.0 µg/mL) or blank HBSS (control) was then loaded into both apical and basolateral chambers. After incubation at 37°C for 1.5 h, GE (100 µg/mL) was added to either the apical or basolateral side to evaluate the transport in absorptive and secretive directions, respectively. The cell monolayer was then incubated for another 2 h. Finally, the concentrations of ginsenosides were determined by LC/MS. All experiments were conducted in triplicate.
(§3) For the transport assay, the apparent permeability (P app, cm/s) in each direction (A→B and B→A) was calculated as follows, where A is the surface area of the membrane inserts (0.0804 cm^2), C 0 is the initial concentration of the compound applied in the donor compartment (2 µM), and △Q is the amount (micromoles) of compound transported over time △t (5 h = 18,000 s): [drawing 1]
(§4) The efflux ratio (ER) was a dimensionless number calculated as the ratio of the apparent permeability in the B→A direction divided by the apparent permeability in the A→B direction. [drawing 2]

[1] = target: T1, human MDR1-encoded P-gp (L-MDR1 cells) (Homo sapiens, UniProt P08183); test: as above; format: in vitro ADME; details: for Effect of verapamil on efflux ratio / Papp / Effect of SLE on efflux ratio / transport: L-MDR1 cells; for Effect of verapamil on efflux ratio / Papp: 10 µM verapamil; for Effect of SLE on efflux ratio / transport: SLE 2.0 and 10.0 µg/mL; for P-gp substrate classification: summary of transport/uptake in LLC-PK1, L-MDR1 and Caco-2 cells with verapamil
T1 sequence (P08183 whole entry): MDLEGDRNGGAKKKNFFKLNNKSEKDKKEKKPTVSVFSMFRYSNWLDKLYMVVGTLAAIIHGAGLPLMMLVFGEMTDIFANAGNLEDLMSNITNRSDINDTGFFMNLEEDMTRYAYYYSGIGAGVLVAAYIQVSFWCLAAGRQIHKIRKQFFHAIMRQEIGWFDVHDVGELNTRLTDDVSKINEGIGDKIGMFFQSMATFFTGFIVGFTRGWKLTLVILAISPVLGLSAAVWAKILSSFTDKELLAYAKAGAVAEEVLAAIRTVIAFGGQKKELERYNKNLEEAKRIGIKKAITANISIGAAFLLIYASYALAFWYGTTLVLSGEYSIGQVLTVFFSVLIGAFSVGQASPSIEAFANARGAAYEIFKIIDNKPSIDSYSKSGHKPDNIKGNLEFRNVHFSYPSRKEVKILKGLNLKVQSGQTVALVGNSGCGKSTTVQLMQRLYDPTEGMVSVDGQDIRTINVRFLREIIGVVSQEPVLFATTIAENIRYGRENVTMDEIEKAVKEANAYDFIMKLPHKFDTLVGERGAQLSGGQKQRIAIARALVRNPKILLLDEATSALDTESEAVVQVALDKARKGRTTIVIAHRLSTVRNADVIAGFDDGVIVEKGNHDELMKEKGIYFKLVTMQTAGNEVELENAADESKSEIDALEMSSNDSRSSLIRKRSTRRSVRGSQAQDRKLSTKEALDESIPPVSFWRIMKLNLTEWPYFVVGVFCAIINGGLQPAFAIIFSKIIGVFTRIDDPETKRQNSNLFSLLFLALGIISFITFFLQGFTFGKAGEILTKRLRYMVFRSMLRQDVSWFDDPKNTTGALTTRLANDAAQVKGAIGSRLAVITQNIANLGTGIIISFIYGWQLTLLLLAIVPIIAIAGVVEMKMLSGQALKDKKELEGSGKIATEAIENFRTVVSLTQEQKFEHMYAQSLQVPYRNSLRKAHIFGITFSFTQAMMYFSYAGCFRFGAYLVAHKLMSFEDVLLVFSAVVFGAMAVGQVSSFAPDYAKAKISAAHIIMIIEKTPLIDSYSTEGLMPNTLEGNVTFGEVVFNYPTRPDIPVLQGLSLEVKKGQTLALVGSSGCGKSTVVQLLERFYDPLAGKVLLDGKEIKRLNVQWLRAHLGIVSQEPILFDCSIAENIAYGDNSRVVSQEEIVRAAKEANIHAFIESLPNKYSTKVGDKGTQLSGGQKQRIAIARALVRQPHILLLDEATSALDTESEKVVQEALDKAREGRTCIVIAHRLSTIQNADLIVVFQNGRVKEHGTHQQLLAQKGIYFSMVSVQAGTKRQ
Procedure: as §1, §2, §3, §4

[2] = tested on: LLC-PK1 cells (lacking P-gp); test: Transport of digoxin and ginsenosides across LLC-PK1 cell monolayers; format: in vitro ADME; details: for Effect of verapamil on transport (efflux ratio): 10 µM verapamil; for Effect of SLE on transport (AP→BL, BL→AP): SLE 2.0 and 10.0 µg/mL
Procedure: as §1, §2, §3, §4

[3] = target: T1, human MDR1-encoded P-gp (L-MDR1 cells); test: Uptake (intracellular concentration) of digoxin and ginsenosides in L-MDR1 cells; format: in vitro ADME
Procedure: as §1
LLC-PK1 and L-MDR1 cells were incubated with SLE (2.0 and 10.0 µg/mL) or verapamil (10 µM) for 1.0 h, and then were washed to discard SLE or verapamil before adding 100 µg/mL of GE. The accumulation of GE lasted for 2 h, and the intracellular concentrations of ginsenosides were measured by LC/MS. All experiments were conducted in triplicate.

[4] = Rat plasma pharmacokinetics after single-dose vehicle/SLE and digoxin or GE; format: in vivo, Sprague-Dawley rats; details: rats; for half-life / AUC / Cmax / AUC(0-inf) / MRT inf / Tmax: female, Sprague-Dawley, rat, plasma, po; for half-life / AUC / Cmax / AUC(0-inf) / MRT inf / Tmax / Cl_F_obs / AUCINF_obs: 2 h later digoxin 0.5 mg/kg or GE 120 mg/kg ig; for half-life: read-out: t1/2 (converted); for AUC(0-inf): read-out: AUCINF_obs; for MRT inf: read-out: MRTINF_obs; for Tmax: read-out: Tmax; for Effect of SLE treatment on Cmax / Increase of AUC (AUC0-∞) by coadministration of SLE: single-dose SLE 500 mg/kg vs vehicle, GE ig
Procedure: This study was carried out in strict accordance with the recommendations in the Guide for the Care and Use of Laboratory Animals of the National Institutes of Health. The protocol was approved by the Committee on the Ethics of Animal Experiments of the China Pharmaceutical University. All surgery was performed under sodium pentobarbital anesthesia, and all efforts were made to minimize suffering. Female healthy Sprague-Dawley rats (200±20 g) were purchased from the Laboratory Animal Center of Peking University Health Science Center (Beijing, PR China) and kept in an environmentally controlled breeding room for at least 3 days before experimentation. The rats were fed with standard laboratory food and water and fasted overnight but with free access to water before the test. To evaluate the effect of single treatment of SLE on the pharmacokinetics of ginsenosides, 24 rats were divided into four groups (group I ∼ group IV) averagely. […] In group II (control group): the rats received a single dose of vehicle (0.5% CMC-Na), and digoxin (0.5 mg/kg) was also given to the rats by intragastric administration. […] In group IV (control group): the rats received a single dose of vehicle (0.5% CMC-Na), and GE (120 mg/kg) was also given to the rats by gavage. […] Plasma was obtained by centrifugation at 5000 g for 10 min and stored at −20°C before analysis. The plasma / cell samples were extracted using a liquid–liquid extraction technique. To each tube containing 100 µL plasma, 10 µL internal standard (digoxin, 1.0 µg/mL) and 1.0 mL of n-butanol were added. The mixture was then vortex-extracted for 2 min, and centrifuged for 10 min at 10,000 g. […] The plasma concentration-time curves of ginsenosides in rats were obtained by plotting the mean plasma concentrations versus time. Pharmacokinetic parameters were calculated using the WinNonlin 6.3 program (Pharsight Inc., Mountain View, CA). The elimination half-life (t 1/2) value was calculated as 0.693/β, where β is the elimination rate constant calculated from the terminal linear portion of the log plasma concentration-time curve. The total areas under the plasma concentration- time curve from time 0 to the last quantifiable time point (AUC0-t) and from time 0 to infinity (AUC0-∞) were calculated using the log trapezoidal rule. [drawing 3] The maximum plasma concentrations (C max) for ginsenosides were obtained by visual inspection of the plasma concentration-time curve, whereas the initial drug concentration (the extrapolated concentration at zero time) of the drug after intravenous injection was calculated by back-extrapolation of the plasma concentration-time curve to the y-axis.

[5] = LLC-PK1, pH 7.4, with verapamil 10 µM, L-MDR1 cells, presence of 10 µM verapamil
[6] = control: single vehicle (0.5% sodium CMC)

P-gp (MDR1), sequence (P08183 whole entry): as above

efflux ratio at 2 h, 100 µg/mL (P-gp (MDR1); [5]) | Effect of verapamil on efflux ratio / Papp [1] | Effect of SLE on efflux ratio / transport [1] | Effect of SLE on transport (AP→BL, BL→AP) [2] | Increase of intracellular concentration by SLE ([3]; 2.0 µg/mL SLE) | Increase of intracellular concentration by SLE ([3]; 10.0 µg/mL SLE) | half-life [4, 6] | AUC ([4]; control: single vehicle) | Cmax ([4]; control: single vehicle) | AUC(0-inf) ([4]; control: single vehicle) | MRT inf ([4]; control: single vehicle) | Tmax ([4]; control: single vehicle) | AUC ([4]; single SLE 500 mg/kg ig) | Cmax ([4]; single SLE 500 mg/kg ig) | AUC(0-inf) ([4]; single SLE 500 mg/kg ig) | MRT inf ([4]; single SLE 500 mg/kg ig) | Tmax ([4]; single SLE 500 mg/kg ig) | half-life ([4]; single SLE 500 mg/kg ig) | Cl_F_obs ([4]; control: single vehicle) | Cl_F_obs ([4]; single SLE 500 mg/kg ig) | SMILES | other results
8.23 | significantly decrease of ER | significantly decreased | No transport difference | 2.7 fold | 3.6 fold | 3.08 ± 1.23 h | 61.8 ± 13.4 ng·h/mL | 15 ± 5.07 ng/mL | 67.5 ± 13.4 ng·h/mL | 5.15 ± 1.09 h | 1.28 ± 0.36 h | 84.4 ± 7.25 ng·h/mL | 17.5 ± 2.26 ng/mL | 91 ± 8.39 ng·h/mL | 5.06 ± 0.42 h | 1.58 ± 0.38 h | 2.98 ± 0.36 h | 7.66 ± 1.53 L/h | 5.53 ± 0.48 L/h | C[C@H]1O[C@@H](O[C@H]2[C@@H](O)C[C@H](O[C@H]3[C@@H](O)C[C@H](O[C@H]4CC[C@@]5(C)[C@H](CC[C@@H]6[C@@H]5C[C@@H](O)[C@]5(C)[C@@H](C7=CC(=O)OC7)CC[C@]65O)C4)O[C@@H]3C)O[C@@H]2C)C[C@H](O)[C@@H]1O [Digoxin, digoxin, reference compound] | efflux ratio at 2 h, 100 µg/mL (P-gp (MDR1); LLC-PK1, pH 7.4, L-MDR1 cells, control (absence of verapamil), GE 100 µg/mL, 2 h): 26.2; Effect of verapamil on transport (efflux ratio) [2]: No transport difference; Enhancement of uptake level by verapamil ([3]; 10 µM verapamil, P<0.05): 3.2 fold
2.19 | significantly decrease of ER | significantly decreased | No transport difference | 2.9 fold | 4.3 fold | 75.4 ± 42.7 h | 5350 ± 1400 ng·h/mL | 237 ± 79 ng/mL | 7410 ± 2180 ng·h/mL | 21.6 ± 49 h | 7.5 ± 1 h | 7960 ± 2000 ng·h/mL | 227 ± 57.8 ng/mL | 9040 ± 2200 ng·h/mL | 25.1 ± 7.45 h | 7.5 ± 1 h | 21.8 ± 6.78 h | 0.014 ± 0.003 L/h | 0.011 ± 0.003 L/h | CC(C)=CCC[C@](C)(O[C@@H]1O[C@H](CO)[C@@H](O)[C@H](O)[C@H]1O)[C@H]1CC[C@]2(C)[C@@H]1[C@H](O)C[C@@H]1[C@@]3(C)CC[C@H](O[C@@H]4O[C@H](CO)[C@@H](O)[C@H](O)[C@H]4O[C@@H]4O[C@H](CO)[C@@H](O)[C@H](O)[C@H]4O)C(C)(C)[C@@H]3CC[C@]12C [Rd, ginsenoside Rd] | P-gp substrate classification [1]: moderate P-gp substrates; Effect of verapamil on transport (efflux ratio) [2]: No transport difference; Effect of SLE treatment on Cmax [4]: not dramatically changed; Increase of AUC (AUC0-∞) by coadministration of SLE [4]: 1.86 fold
– | – | – | No transport difference | 2.0 fold | 3.7 fold | 19.4 ± 2.87 h | 10200 ± 1710 ng·h/mL | 330 ± 70.9 ng/mL | 10600 ± 1730 ng·h/mL | 27.9 ± 4.2 h | 7 ± 2 h | 22300 ± 5270 ng·h/mL | 541 ± 45 ng/mL | 23200 ± 5570 ng·h/mL | 25.2 ± 3.63 h | 9.5 ± 3 h | 19 ± 3.84 h | 0.012 ± 0.003 L/h | 0.004 ± 0.001 L/h | CC(C)=CCC[C@](C)(O[C@@H]1O[C@H](CO[C@@H]2OC[C@H](O)[C@H](O)[C@H]2O)[C@@H](O)[C@H](O)[C@H]1O)[C@H]1CC[C@]2(C)[C@@H]1[C@H](O)C[C@@H]1[C@@]3(C)CC[C@H](O[C@@H]4O[C@H](CO)[C@@H](O)[C@H](O)[C@H]4O[C@@H]4O[C@H](CO)[C@@H](O)[C@H](O)[C@H]4O)C(C)(C)[C@@H]3CC[C@]12C [Rb2, ginsenoside Rb2] | P-gp substrate classification [1]: moderate P-gp substrates; AUCINF_obs ([4]; control: single vehicle): 10551 ± 1728 ng·h/mL; AUCINF_obs ([4]; single SLE 500 mg/kg ig): 23198 ± 5566 ng·h/mL; Effect of SLE treatment on Cmax [4]: significantly enhanced; Increase of AUC (AUC0-∞) by coadministration of SLE [4]: 2.18 fold
